SMILES	melting point [°C]
c1ccc(-c2nc(Nc3nccs3)c3ccccc3n2)cc1 [II-34, (2-Phenyl-quinazolin-4-yl)-(thiazol-2-yl)-amine]	219 to 221
Cc1cnc(Nc2nc(-c3ccccc3)nc3ccccc23)s1 [II-35, (5-Methyl-thiazol-2-yl)-(2-phenyl-quinazolin-4-yl)-amine]	215 to 216
c1ccc(-c2nc(Nc3ncc(C4CC4)s3)c3ccccc3n2)cc1 [II-36, (5-Cyclopropyl-thiazol-2-yl)-(2-phenyl-quinazolin-4-yl)-amine]	161 to 162

Source: patent publication US6846928B2, “Compositions useful as inhibitors of protein kinases” (Vertex Pharmaceuticals Incorporated, priority 2002, dated 2005)
